Assay results published in US20170368207A1, “SELF-ASSEMBLED NANOSTRUCTURE AND METHOD FOR PREPARING THE SAME” (National Chiao Tung University, priority 2016, published 2017).

Assay: Relaxivity of contrast agents (Table 4)
Type: physicochemical
Text: Relaxivities of a self-assembled nanostructure of the invention, gadodiamide, and carboxymethyl hexanoyl chitosan that physically encapsulates gadodiamide are as shown in Table 4. Hereinafter, the symbol “CHC+Gd” represents that there is only physical mixing between gadodiamide and carboxymethyl hexanoyl chitosan, while the symbol “CHC−Gd” represents that chemical bonding exists between gadodiamide and carboxymethyl hexanoyl chitosan (i.e., the self-assembled nanostructure of the invention).
As a molecule grafted to a paramagnetic metal of a contrast agent is larger, a rotation time between the paramagnetic metal and a solvent molecule becomes longer, so that the relaxivity of the contrast agent is enhanced. The higher the relaxivity of the contrast agent, the better the contrast effect, i.e., the more excellent the contrasting ability. In the self-assembled nanostructure of the invention, gadolinium (paramagnetic metal) has an amphiphilic chitosan (polymer) grafted thereto, and thus has a higher relaxivity than the relaxivities of the single gadodiamide and CHC+Gd. […] In other words, the contrast agent compound of the invention, after being grafted to the amphiphilic chitosan, produces a synergistic effect on the contrasting ability of the contrast agent compound.

With `CNC(=O)CN(CCN(CCN(CC(=O)[O-])CC(=O)NC)CC(=O)[O-])CC(=O)[O-].[Gd+3]` [Gadodiamide, gadodiamide] the Relaxivity was 1.8158 mM⁻¹ s⁻¹.
